Laboratory results published in patent publication US20230365582A1, “NOVEL COMPOUNDS HAVING INHIBITORY ACTIVITY ON PROSTAGLANDIN E2 RECEPTOR AND USES THEREOF” (KANAPH THERAPEUTICS INC., priority 2020, published 2023).

Legend:
[1] = target: T1, hEP2 (Homo sapiens, UniProt P43116); experiment: hEP2 cAMP assay; type: cell-based; settings: HEK293 cells overexpressing hEP2; PGE2 agonist 400 pM; graded per Table 21; read-out: IC50 (nM) EP2 cAMP
T1 construct: expressed in transfected cells; host or cells: HEK293
Outline: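 HEK293 cells overexpressing hEP2, serum-starved 4 h, then 1,000 cells/well treated with compound (10 μM–0.001 nM) plus 400 pM PGE2 (about EC50-80) in HBSS buffer with 0.5 mM IBMX for 12 min at room temperature. cAMP measured by TR-FRET (665/615 nm) as % of DMSO control; IC50 from 4-parameter fit, median of repeats.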

[2] = target: T2, hEP4 (Homo sapiens, UniProt P35408); experiment: hEP4 cAMP assay; type: cell-based; settings: HEK293 cells overexpressing hEP4; PGE2 agonist 20 nM; graded per Table 21; read-out: IC50 (nM) EP4 cAMP
T2 construct: expressed in transfected cells; host or cells: HEK293
Outline: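 HEK293 cells overexpressing hEP4, starved 4 h, were treated with compound (10 μM-0.001 nM) plus 20 nM PGE2 (EC50-80) in HBSS buffer with 0.5 mM IBMX for 18.5 min at room temperature. cAMP was read by TR-FRET (665/615 nm) as % of DMSO control; IC50 from 4-parameter fit, median of multiple experiments.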

T2 sequence (P35408 whole entry): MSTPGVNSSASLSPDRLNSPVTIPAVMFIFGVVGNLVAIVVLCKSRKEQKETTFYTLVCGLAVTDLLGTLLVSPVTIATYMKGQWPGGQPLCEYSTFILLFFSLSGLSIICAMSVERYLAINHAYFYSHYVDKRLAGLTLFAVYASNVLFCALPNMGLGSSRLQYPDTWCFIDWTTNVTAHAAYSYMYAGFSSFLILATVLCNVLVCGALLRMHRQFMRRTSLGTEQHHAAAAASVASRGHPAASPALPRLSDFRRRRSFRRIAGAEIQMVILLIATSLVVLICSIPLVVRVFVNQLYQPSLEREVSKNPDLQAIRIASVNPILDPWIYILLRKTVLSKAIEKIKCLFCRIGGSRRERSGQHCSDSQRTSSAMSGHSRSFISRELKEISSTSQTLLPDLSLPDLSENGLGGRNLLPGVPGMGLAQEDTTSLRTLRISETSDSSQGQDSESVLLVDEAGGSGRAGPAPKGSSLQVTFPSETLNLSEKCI
T1 sequence (P43116 whole entry): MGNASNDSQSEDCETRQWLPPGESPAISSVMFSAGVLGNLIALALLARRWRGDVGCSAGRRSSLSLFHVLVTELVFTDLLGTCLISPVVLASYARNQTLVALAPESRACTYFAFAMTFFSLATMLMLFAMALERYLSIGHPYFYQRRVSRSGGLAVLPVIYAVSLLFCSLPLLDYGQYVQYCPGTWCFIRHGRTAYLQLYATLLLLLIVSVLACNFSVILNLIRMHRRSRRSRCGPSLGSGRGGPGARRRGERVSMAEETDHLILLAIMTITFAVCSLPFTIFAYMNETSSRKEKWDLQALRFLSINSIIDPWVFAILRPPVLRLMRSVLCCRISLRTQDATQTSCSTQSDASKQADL

SMILES	IC50 [1] [nM]	IC50 [2] [nM]
Cc1sc(C)c(C(=O)NC2CC3(C2)CC(C(=O)O)C3)c1Cc1ccc(-c2ccccc2O)cc1 (centres unmarked) [Example 25, 6-(4-((2′-hydroxy-[1,1′-biphenyl]-4-yl)methyl)-2,5-dimethylthiophene-3-carboxamido)spiro[3.3] heptane-2-carboxylic acid]	> 10000	5000 to 10000
Cc1sc(C)c(C(=O)NC2CC3(C2)CC(C(=O)O)C3)c1Cc1ccc(-c2cc(F)cc(F)c2)cc1 (centres unmarked) [Example 52, 6-(4-((3′,5′-difluoro-[1,1′-biphenyl]-4-yl)methyl)-2,5-dimethylthiophene-3-carboxamido)spiro[3.3]heptane-2-carboxylic acid]	5000 to 10000	< 500
Cc1sc(C)c(N(C)c2ccc(-c3ccccc3)cc2)c1C(=O)NC1CC2(C1)CC(C(=O)O)C2 (centres unmarked) [Example 76, 6-(4-([1,1′-biphenyl]-4-yl(methyl)amino)-2,5-dimethylthiophene-3-carboxamido)spiro[3.3]heptane-2-carboxylic acid]	> 10000	500 to 5000
Cc1scc(Cc2ccc(-c3ccccc3)cc2)c1C(=O)NC1CC2(C1)CC(C(=O)O)C2 (centres unmarked) [Example 14, 6-(4-([1,1′-biphenyl]-4-ylmethyl)-2-methylthiophene-3-carboxamido)spiro[3.3]heptane-2-carboxylic acid]	500 to 5000	500 to 5000
Cc1sc(C)c(C(=O)NC2CC3(C2)CC(C(=O)O)C3)c1Cc1cccc(-c2ccccc2)c1 (centres unmarked) [Example 3, 6-(4-([1,1′-biphenyl]-3-ylmethyl)-2,5-dimethylthiophene-3-carboxamido)spiro[3.3]heptane-2-carboxylic acid]	> 10000	5000 to 10000
COc1ccc(F)cc1-c1ccc(Cc2c(C)sc(C)c2C(=O)NC2CC3(C2)CC(C(=O)O)C3)cc1 (centres unmarked) [Example 48, 6-(4-((5′-fluoro-2′-methoxy-[1,1′-biphenyl]-4-yl)methyl)-2,5-dimethylthiophene-3-carboxamido)spiro[3.3]heptane-2-carboxylic acid]	> 10000	< 500
Cc1sc(C)c(C(=O)NC2CC3(C2)CC(C(=O)O)C3)c1CCc1ccc(-c2ccccc2)cc1 (centres unmarked) [Example 6, 6-(4-(2-([1,1′-biphenyl]-4-yl)ethyl)-2,5-dimethylthiophene-3-carboxamido)spiro[3.3]heptane-2-carboxylic acid]	> 10000	> 10000
